Laboratory results: ChEMBL document CHEMBL1134328 (J Med Chem, 2001)

Legend:
[1] = target: T1, Neuronal acetylcholine receptor subunit alpha-7 (Rattus norvegicus, UniProt Q05941); assay: biochemical
Description: In vitro binding affinity towards Nicotinic acetylcholine receptor alpha7 using [125I]-alpha-Bungarotoxin in rat brain

[2] = target: T1, Neuronal acetylcholine receptor subunit alpha-7; assay: In vitro binding affinity towards Nicotinic acetylcholine receptor alpha7 using [125I]alpha-bungarotoxin in rat brain; format: tissue-based

T1 sequence (Q05941 whole entry): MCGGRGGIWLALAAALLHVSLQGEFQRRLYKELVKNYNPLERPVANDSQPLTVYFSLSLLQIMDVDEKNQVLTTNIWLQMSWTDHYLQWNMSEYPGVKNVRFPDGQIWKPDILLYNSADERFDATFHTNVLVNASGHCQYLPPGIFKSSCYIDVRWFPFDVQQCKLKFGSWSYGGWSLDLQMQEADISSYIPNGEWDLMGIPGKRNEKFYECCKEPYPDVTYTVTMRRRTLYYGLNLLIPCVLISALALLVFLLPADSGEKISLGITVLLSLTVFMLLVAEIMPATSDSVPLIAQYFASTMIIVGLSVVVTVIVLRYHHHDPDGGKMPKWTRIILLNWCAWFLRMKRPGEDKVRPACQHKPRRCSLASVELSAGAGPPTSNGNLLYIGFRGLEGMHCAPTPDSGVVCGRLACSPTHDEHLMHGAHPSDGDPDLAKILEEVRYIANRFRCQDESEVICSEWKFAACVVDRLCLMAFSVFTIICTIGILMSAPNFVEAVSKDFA

| SMILES | Ki [1] [µM] | Ki [2] [µM] |
| --- | --- | --- |
| O=c1cccc2n1C[C@@H]1CNC[C@H]2C1 [CYTISINICLINE] | 0.0009 | – |
| CN1CCCC[C@H]1[C@@H]1CCc2cc(O)ccc2O1 (racemic) | – | > 10 |
| CN1CCCC[C@H]1[C@H]1CCc2cc(O)ccc2O1 (racemic) | – | > 10 |
| CN1CCCC[C@H]1[C@@H]1CCc2ccccc2O1 (racemic) | – | > 10 |
| Cc1ncccc1OCC1CCCN1 (single isomer, unassigned; form 1) [POZANICLINE] | – | > 10 |
| Cc1ncccc1OCC1CCCN1 (single isomer, unassigned; form 2) | – | > 10 |
| CN1CCCC[C@H]1[C@H]1CCc2ccccc2O1 (racemic) | – | > 10 |
